The test system of experiment [1] is human non-small cell lung cancer cells NCI-H2122 (KRAS_G12C). In words: In vivo combination study, NCI-H2122 NSCLC xenograft model. Also noted: species or system female athymic nude mice. Conditions: single agent. As to the method:
(§1) More specifically, the compound of Example 1 is tested in combination with either the pan-RAF inhibitor compound or the CDK4/6 inhibitor compound in HCT116, a KRAS mutant colorectal cancer xenograft model. Also, the compound of Example 1 is tested in combination with either the CDK4/6 inhibitor compound or DC101 in NCI-H441, A549, and NCI-H2122, KRAS mutant non-small cell lung cancer (NSCLC) xenograft models.
(§2) Combination efficacy is also tested in three KRAS mutant NSCLC xenograft models including A549 (KRAS_G12S) in SCID mice as well as NCI-H441 (KRAS_G12V) and NCI-H2122 (KRAS_G12C) in athymic nude mice. Expand human non-small cell lung cancer cells NCI-H441 (ATCC, #CRL-5807) and NCI-H2122 (ATCC, #CRL-5985) in culture, harvest and inject 5×10e^6 cells in 200 μL of 1:1 HBSS+matrigel solution subcutaneously on to the rear right flank of female athymic nude mice (20-22 gm, Harlan Laboratories). Expand human non-small cell lung cancer cells A549 (ATCC, #CC1-185) in culture, harvest and inject 5×10e^6 cells in 200 μL of 1:1 HBSS+matrigel solution subcutaneously on to the rear right flank of female CB-17 SCID mice (18-20 gm, Taconic Farms). For all cell lines, measure tumor growth and body weight twice per week beginning the seventh day after the implantation. When average tumor sizes reach 200-300 mm^3, randomize animals and group into groups of five to seven animals. Prepare test compound in an appropriate vehicle (see below) and administer by oral gavage (compound of Example 1 and the CDK4/6 inhibitor compound) or intraperitoneally (DC101) for 21 to 28 days. Tumor response is determined by tumor volume measurement performed twice a week during the course of treatment. Vehicle used in these studies is 1% HEC/0.25% Tween® 80/0.05% Antifoam. The compound of Example 1 is formulated in 1% HEC/0.25% Tween® 80/0.05% Antifoam and the CDK4/6 inhibitor compound is formulated in 1% HEC in 25 mM sodium phosphate buffer, pH 2. […] In the same NCI-H441 xenograft model, DC101 in phosphate buffer is also administered intraperitoneally twice per week (BIW) as a single agent or in combination with the compound of Example 1, 50 mpk, QD for 28 days.

Experiment [2] concerns human pancreatic cancer cells MIA PACA-2. In words: Xenograft tumor model MIA PACA-2. Conditions: oral gavage; for Delta T/C % or Regr %: negative = regression. In kind it is in vivo, female athymic nude mice. The protocol: (§3) The purpose of this assay is to measure reduction in tumor volume in response to test compound administration. Expand human colorectal cancer cells HCT116 (ATCC, # CCL-247) in culture, harvest and inject 5×10e^6 cells in 200 μL of 1:1 HBSS+matrigel solution subcutaneously on to the rear right flank of female athymic nude mice (22-25 g, Harlan Laboratories). Expand human pancreatic cancer cells MIA PACA-2 (ATCC, # CRL-1420) or human non-small cell lung cancer cells CALU-6 (ATCC, #HTB-56) or human colorectal cancer cells COLO-205 (ATCC, #CCL-222) in culture, harvest and inject 5×10e^6 cells in 200 μL of 1:1 HBSS+matrigel solution subcutaneously on to the rear right flank of female athymic nude mice (22-25 g, Harlan Laboratories). Measure tumor growth and body weight twice per week beginning the seventh day after the implantation. When tumor sizes reach 200-400 mm^3, randomize animals and group into groups of eight to ten animals. Prepare test compound in an appropriate vehicle (vehicle: 1% HEC/0.25% Tween 80/0.05% Antifoam) and administer by oral gavage for 14 to 21 days. Tumor response is determined by tumor volume measurement performed twice a week during the course of treatment. Body weight is taken as a general measure of toxicity.
(§4) A compound within the scope of invention is tested in this assay run substantially as above.

In experiment [3] the test system is human colorectal cancer cells HCT116. The experiment is described as follows: Xenograft tumor model HCT116. Conditions: oral gavage; for Delta T/C % or Regr %: negative = regression. In kind it is in vivo, female athymic nude mice. The protocol:
as §3, §4

The test system of experiment [4] is human non-small cell lung cancer cells A549 (KRAS_G12S). In words: In vivo combination study, A549 NSCLC xenograft model. Conditions: single agent. Also on record: species or system female CB-17 SCID mice. The protocol:
as §1, §2

In the next experiment the target is T1, ERK1 (Homo sapiens, UniProt P27361).
T1 construct: purchased Invitrogen PR5254B
The experiment is described as follows: ERK1 Kinase Assay (TR-FRET). Conditions: Abs_IC50, ATP 10 μM, GFP-ATF2 substrate; ±0.20, n=7. It is filed as biochemical. The protocol:
The purpose of this assay is to measure the ability of compounds to inhibit ERK1 kinase activity. Perform the ERK1 kinase assay in vitro using a TR-FRET assay. Start reactions (12.5 μL) by adding 5 μL of ERK1 enzyme (Invitrogen, #PR5254B, final concentration 100 ng/mL) plus substrate GFP-ATF2 (Invitrogen, #PV4445, final concentration 0.2 μM), 5 μL of ATP solution (Invitrogen, #PV3227, final concentration 10 μM) prepared in kinase buffer (50 mM Hepes pH 7.4, 5 mM MgCl2, 0.1 mM EGTA, 0.01% Triton X-100, 1 mM DTT) and 2.5 μL of testing compounds in DMSO solution (final 4%, v/v) in a 384-well PROXIPLATE™ (Perkin Elmer, #GRN6260). Incubate the reaction mixture at room temperature for 60 minutes. Stop the reaction by addition of 12.5 μL of stop buffer (10 mM EDTA, 2 nM Tb-anti-pATF2 (pThr71) antibody, Invitrogen, #PV4448) in TR-FRET dilution buffer (Invitrogen, #PV3574). Incubate the plates at room temperature for an additional 60 minutes and read on an ENVISION® (PerkinElmer) plate reader at the excitation wavelength 340 nm Calculate the TR-FRET ratio by dividing the GFP acceptor emission signal (at 520 nm) by the Tb donor emission signal (at 495 nm). Calculate percent inhibition using compound treated wells relative to on-plate Max (DMSO control) and Min (No enzyme added) control wells TR-FRET ratio data {% inhibition=100−[(test compound−median Min)/(median Max−median Min)×100]}. […]

T1 sequence (P27361 whole entry): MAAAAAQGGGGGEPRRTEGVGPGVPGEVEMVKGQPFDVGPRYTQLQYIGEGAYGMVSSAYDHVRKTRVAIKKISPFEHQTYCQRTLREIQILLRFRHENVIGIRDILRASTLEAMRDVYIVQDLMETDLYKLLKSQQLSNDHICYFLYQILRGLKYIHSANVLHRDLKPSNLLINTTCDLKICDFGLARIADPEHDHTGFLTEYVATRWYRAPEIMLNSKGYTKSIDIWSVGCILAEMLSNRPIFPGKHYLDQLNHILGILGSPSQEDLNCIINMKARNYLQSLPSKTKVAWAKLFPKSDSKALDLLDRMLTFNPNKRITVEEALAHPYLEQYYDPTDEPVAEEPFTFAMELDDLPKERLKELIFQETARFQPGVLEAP

As to `Cn1nccc1Nc1nccc(-c2cc3c(s2)C(C)(C)N(CCN2CCOCC2)C3=O)n1` [Example 1, 6,6-Dimethyl-2-{2-[(1-methyl-1H-pyrazol-5-yl)amino]pyrimidin-4-yl}-5-[2-(morpholin-4-yl)ethyl]-5,6-dihydro-4H-thieno[2,3-c]pyrrol-4-one], the “Delta T/C %” value in experiment [1] (50 mg/kg QD, oral, 28 days) is listed as 59%; in experiment [4] (50 mg/kg QD, oral, 28 days) it was 9%. Moreover, the tumor growth inhibition came out at 41% in experiment [1] (50 mpk) and 91% in experiment [4] (50 mpk). Also, the TGI % is recorded as 68% in experiment [2] (12.5 mg/kg QD); 98% in experiment [2] (25 mg/kg QD); 122% in experiment [2] (50 mg/kg QD); 166% in experiment [2] (100 mg/kg QD); 108% in experiment [3] (25 mg/kg QD); 89% in experiment [3] (50 mg/kg QD). Further, the TGI % in experiment [3] (100 mg/kg QD) came out at 125%. Moreover, the “Delta T/C % or Regr %” value is recorded as 32% in experiment [2] (12.5 mg/kg QD); 2% in experiment [2] (25 mg/kg QD); −22% in experiment [2] (50 mg/kg QD); −66% in experiment [2] (100 mg/kg QD); −8% in experiment [3] (25 mg/kg QD); 11% in experiment [3] (50 mg/kg QD). Besides, the “Delta T/C % or Regr %” value in experiment [3] (100 mg/kg QD) was −25%. The same compound showed an IC50 against ERK1 of 4.86 nM.
